Columns and labels:
[1] = In vivo pharmacokinetics, rat; design: species or system Male Sprague-Dawley rats; conditions: male, Sprague-Dawley, plasma, iv, 0.3 mg/kg
[2] = In vivo pharmacokinetics, dog; design: species or system Male beagle dogs; conditions: male, beagle, plasma, iv, 0.3 mg/kg
[3] = in vitro; conditions: rat, microsomes, pH 7.4
[4] = Caco-2 permeability; format: in vitro ADME

Compound | clearance [1] | clearance [2] | CLint scaled at 1 uM [3] | efflux in Caco-2 assay [4]
CNC(=O)c1cn(C[C@H](F)CCc2ccc(NC(=O)Cc3cc(OC4CC(F)(F)C4)ccn3)nn2)nn1 [Compound 24] | 3 mL/min/kg | 3 mL/min/kg |  | 
CNC(=O)c1cn(C[C@H](F)CCc2ccc(NC(=O)Cc3cc(-c4cccc(OC(F)(F)F)c4)ccn3)nn2)nn1 [Compound 25] | 8 mL/min/kg | 2.9 mL/min/kg | 22 mL/min/kg | 
CNC(=O)c1cn(C[C@H](F)CCc2ccc(NC(=O)Cc3cc(C(F)(F)F)cc(C)n3)nn2)nn1 [Compound 26] | 1 mL/min/kg | 0.9 mL/min/kg |  | 
CNC(=O)c1cn(C[C@H](F)CCc2ccc(NC(=O)Cc3cc(OC4CC(F)(F)C4)cc(C)n3)nn2)nn1 [Compound 27, (R)-1-(4-(6-(2-(4-(3,3-difluorocyclobutoxy)-6-methylpyridin-2-yl)acetamido)pyridazin-3-yl)-2-fluorobutyl)-N-methyl-1H-1,2,3-triazole-4-carboxamide] | 0.3 mL/min/kg | 0.6 mL/min/kg |  | mild efflux

— publication PMC9007139 (Journal of medicinal chemistry, 2020)
